Where two headings read alike, the source gives them in different places.
Tests used:
M1 muscarinic receptor = biological target: T1, M1 muscarinic receptor (Homo sapiens, UniProt P11229); test: Functional mobilization of intracellular calcium (FLIPR) in M1-CHO cells; format: cell-based
T1 construct: expressed in transfected cells; host or cells: CHO (M1-CHO)
T1 sequence (P11229 1-460): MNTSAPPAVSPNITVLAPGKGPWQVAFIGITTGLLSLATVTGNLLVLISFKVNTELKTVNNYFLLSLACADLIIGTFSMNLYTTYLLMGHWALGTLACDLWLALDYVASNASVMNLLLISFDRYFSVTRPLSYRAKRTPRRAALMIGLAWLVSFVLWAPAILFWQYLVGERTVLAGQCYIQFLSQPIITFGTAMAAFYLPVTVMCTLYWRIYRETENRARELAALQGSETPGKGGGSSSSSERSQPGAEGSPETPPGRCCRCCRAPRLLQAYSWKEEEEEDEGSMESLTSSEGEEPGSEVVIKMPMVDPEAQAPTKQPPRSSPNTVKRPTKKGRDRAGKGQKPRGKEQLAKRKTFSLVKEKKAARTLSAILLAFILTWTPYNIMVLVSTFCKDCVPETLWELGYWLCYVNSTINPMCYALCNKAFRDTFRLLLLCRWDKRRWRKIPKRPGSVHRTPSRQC
Method in brief: (§1)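 FLIPR Ca2+ read, ex 488/em 540 nm, 60 s. Recombinant CHO lines (M1 or M4), dye-loaded Fluo-3 AM 60-90 min at 37° C, probenecid 1 mM, pH 7.4. Agonist: compound alone; inhibition: 15 min compound pre-incubation, then carbachol at EC80 for that subtype.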

M4 muscarinic receptor = biological target: T2, M4 muscarinic receptor (Homo sapiens, UniProt P08173); test: Functional mobilization of intracellular calcium (FLIPR) in M4-CHO cells; format: cell-based
T2 construct: expressed in transfected cells; host or cells: CHO (M4-CHO)
T2 sequence (P08173 1-479): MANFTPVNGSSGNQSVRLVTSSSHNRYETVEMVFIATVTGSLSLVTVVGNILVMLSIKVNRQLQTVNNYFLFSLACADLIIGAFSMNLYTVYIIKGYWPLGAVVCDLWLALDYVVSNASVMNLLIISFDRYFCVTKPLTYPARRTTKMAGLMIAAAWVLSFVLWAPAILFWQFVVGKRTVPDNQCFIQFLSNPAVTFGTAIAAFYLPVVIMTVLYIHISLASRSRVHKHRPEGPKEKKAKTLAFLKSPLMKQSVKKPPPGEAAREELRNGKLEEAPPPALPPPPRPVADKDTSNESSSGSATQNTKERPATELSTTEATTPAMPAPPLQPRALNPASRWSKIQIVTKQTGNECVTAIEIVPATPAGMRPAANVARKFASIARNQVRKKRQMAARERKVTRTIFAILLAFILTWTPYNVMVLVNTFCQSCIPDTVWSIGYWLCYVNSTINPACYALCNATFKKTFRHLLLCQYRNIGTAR
Method in brief: as §1

[1] = M1 receptor, calcium mobilization
[2] = M1 receptor, calcium mobilization, read-out: M1 Efficacy
[3] = M4 receptor, calcium mobilization
[4] = M4 receptor, calcium mobilization, read-out: M4 Efficacy
[5] = Table 4, 100% efficacy is the maximum response obtained with the Carbachol control
[6] = Table 4, modulating M1 receptor
[7] = Table 4, modulating M4 receptor
[8] = Table 4, M1 receptor, calcium mobilization (FLIPR)
[9] = Table 4, M4 receptor, calcium mobilization (FLIPR)

C#CCOC(=O)N1CCC(CN2CCC3(CC2)C[C@H](NC(C)=O)c2ccccc23)CC1 [compound 364]
M1 Activity (M1 muscarinic receptor; [1]): xxx (activity was measured to be less than 0.1 μM) | Emax (M1 muscarinic receptor; [2]): > 85% | M4 Activity (M4 muscarinic receptor; [3]): x (activity was measured to be greater than 1.0 μM) | Emax (M4 muscarinic receptor; [4]): < 65%

CC(=O)N1CC2(CCN(C3CCN(c4cncc(-c5ccccc5C)n4)CC3)CC2)c2ccccc21 [compound 678]
Emax (M1 muscarinic receptor; [5]): 25 to 100% | M1 Activity (M1 muscarinic receptor; [6]): xxx (activity was measured to be less than 2.0 μM) | Emax (M4 muscarinic receptor; [5]): < 25% | M4 Activity (M4 muscarinic receptor; [7]): x (activity was measured to be greater than 5.0 μM)

CC(=O)N1CC2(CCN(C3CCCC3)CC2)c2cc(F)ccc21 [compound 343]
M1 Activity (M1 muscarinic receptor; [1]): xxx (activity was measured to be less than 0.1 μM) | Emax (M1 muscarinic receptor; [2]): 65 to 85% | M4 Activity (M4 muscarinic receptor; [3]): xxx (activity was measured to be less than 0.1 μM) | Emax (M4 muscarinic receptor; [4]): < 65%

CC(=O)N1CC2(CCN(C3CC4CCC3C4)CC2)c2cc(C)ccc21 (stereo not shown) [compound 138]
M1 Activity (M1 muscarinic receptor; [1]): xxx (activity was measured to be less than 0.1 μM) | Emax (M1 muscarinic receptor; [2]): 65 to 85% | M4 Activity (M4 muscarinic receptor; [3]): x (activity was measured to be greater than 1.0 μM) | Emax (M4 muscarinic receptor; [4]): 65 to 85%

C#CCCC(=O)N1CCC(N2CCC3(CC2)CN(C(=O)N(C)C)c2ccc(F)cc23)CC1 [compound 553]
Emax (M1 muscarinic receptor; [5]): 25 to 100% | M1 Activity (M1 muscarinic receptor; [6]): xxx (activity was measured to be less than 2.0 μM) | Emax (M4 muscarinic receptor; [5]): < 25% | M4 Activity (M4 muscarinic receptor; [7]): xxx (activity was measured to be less than 2.0 μM)

CCOC(=O)N1C2CCC1CC(N1CCC3(CC1)CN(C(=O)c1ccno1)c1ccc(F)cc13)C2 (stereo not shown) [compound 88]
M1 Activity (M1 muscarinic receptor; [1]): xxx (activity was measured to be less than 0.1 μM) | Emax (M1 muscarinic receptor; [2]): 65 to 85% | M4 Activity (M4 muscarinic receptor; [3]): xx (activity was measured to be between 0.1 μM and 1.0 μM) | Emax (M4 muscarinic receptor; [4]): < 65%

CCOC(=O)N1C2CCC1CC(N1CCC3(CC[C@H](NS(C)(=O)=O)c4ccccc43)CC1)C2 (stereo partly shown) [compound 809]
Emax (M1 muscarinic receptor; [5]): 25 to 100% | M1 Activity (M1 muscarinic receptor; [8]): xxx (activity was measured to be less than 2.0 μM) | Emax (M4 muscarinic receptor; [5]): 25 to 100% | M4 Activity (M4 muscarinic receptor; [9]): xxx (activity was measured to be less than 2.0 μM)

CC(C)NC(=O)N1C2CCC1CC(N1CCC3(CC1)COc1ccc(F)cc13)C2 (stereo not shown) [compound 289]
M1 Activity (M1 muscarinic receptor; [1]): xxx (activity was measured to be less than 0.1 μM) | Emax (M1 muscarinic receptor; [2]): < 65% | M4 Activity (M4 muscarinic receptor; [3]): x (activity was measured to be greater than 1.0 μM) | Emax (M4 muscarinic receptor; [4]): < 65%

CCC(=O)N1CCC(N2CCC3(CC2)CN(C(=O)N(C)C)c2ccc(F)cc23)CC1 [compound 464]
Emax (M1 muscarinic receptor; [5]): 25 to 100% | M1 Activity (M1 muscarinic receptor; [6]): xx (activity was measured to be between 2.0 μM and 5.0 μM) | Emax (M4 muscarinic receptor; [5]): 25 to 100% | M4 Activity (M4 muscarinic receptor; [7]): xx (activity was measured to be between 2.0 μM and 5.0 μM)

CCOC(=O)N1C2CCC1CC(N1CCC3(CC1)CN(C(=O)N(C)C)c1ccc(F)cc13)C2 (stereo not shown) [compound 362]
M1 Activity (M1 muscarinic receptor; [1]): xx (activity was measured to be between 0.1 μM and 1.0 μM) | Emax (M1 muscarinic receptor; [2]): 65 to 85% | M4 Activity (M4 muscarinic receptor; [3]): x (activity was measured to be greater than 1.0 μM) | Emax (M4 muscarinic receptor; [4]): < 65%

CCOC(=O)N1CCC(N2CCC3(C[C@H](NC(C)=O)c4cc(F)ccc43)C2)CC1 (stereo partly shown) [compound 538]
Emax (M1 muscarinic receptor; [5]): 25 to 100% | M1 Activity (M1 muscarinic receptor; [6]): xx (activity was measured to be between 2.0 μM and 5.0 μM) | Emax (M4 muscarinic receptor; [5]): < 25% | M4 Activity (M4 muscarinic receptor; [7]): x (activity was measured to be greater than 5.0 μM)

CCC#CCOC(=O)N1CC[C@H](CN2CCC3(CC2)CN(C(C)=O)c2ccccc23)C1 [compound 578]
Emax (M1 muscarinic receptor; [5]): 25 to 100% | M1 Activity (M1 muscarinic receptor; [6]): xxx (activity was measured to be less than 2.0 μM) | Emax (M4 muscarinic receptor; [5]): 25 to 100% | M4 Activity (M4 muscarinic receptor; [7]): xxx (activity was measured to be less than 2.0 μM)

CCOC(=O)N1CCC(N2CCC3(CC2)CN(C(=O)NC(C)C)c2ccccc23)CC1 [compound 494]
Emax (M1 muscarinic receptor; [5]): 25 to 100% | M1 Activity (M1 muscarinic receptor; [6]): xx (activity was measured to be between 2.0 μM and 5.0 μM) | Emax (M4 muscarinic receptor; [5]): 25 to 100% | M4 Activity (M4 muscarinic receptor; [7]): xxx (activity was measured to be less than 2.0 μM)

CCOC(=O)N1C2CCC1CC(N1CCC3(CC1)CC(=O)c1cc(C)ccc13)C2 (stereo not shown) [compound 949]
Emax (M1 muscarinic receptor; [5]): 25 to 100% | M1 Activity (M1 muscarinic receptor; [8]): xxx (activity was measured to be less than 2.0 μM) | Emax (M4 muscarinic receptor; [5]): 25 to 100% | M4 Activity (M4 muscarinic receptor; [9]): xxx (activity was measured to be less than 2.0 μM)

Cc1ccc2c(c1)C(=O)CC21CCN(CC2C[C@H]3C=C[C@H]2C3)CC1 (stereo partly shown) [compound 498]
Emax (M1 muscarinic receptor; [5]): 25 to 100% | M1 Activity (M1 muscarinic receptor; [6]): xxx (activity was measured to be less than 2.0 μM) | Emax (M4 muscarinic receptor; [5]): 25 to 100% | M4 Activity (M4 muscarinic receptor; [7]): xxx (activity was measured to be less than 2.0 μM)

CC(C)OC(=O)N1C2CCC1CC(N1CCC3(CC1)CN(S(C)(=O)=O)c1ccc(F)cc13)C2 (stereo not shown) [compound 170]
M1 Activity (M1 muscarinic receptor; [1]): xx (activity was measured to be between 0.1 μM and 1.0 μM) | Emax (M1 muscarinic receptor; [2]): 65 to 85% | M4 Activity (M4 muscarinic receptor; [3]): x (activity was measured to be greater than 1.0 μM) | Emax (M4 muscarinic receptor; [4]): > 85%

CCOC(=O)N1CCC(N2CCC3(CC2)CN(C(C)=O)c2c(-c4cccc(OC)c4)cccc23)CC1 [compound 467]
Emax (M1 muscarinic receptor; [5]): 25 to 100% | M1 Activity (M1 muscarinic receptor; [6]): xx (activity was measured to be between 2.0 μM and 5.0 μM) | Emax (M4 muscarinic receptor; [5]): 25 to 100% | M4 Activity (M4 muscarinic receptor; [7]): xx (activity was measured to be between 2.0 μM and 5.0 μM)

CC(=O)N1CC2(CCN(C3CCN(C(=O)O[C@@H]4CCOC4)CC3)CC2)c2cc(F)ccc21 [compound 424]
EC50 (M1 muscarinic receptor; M1-CHO cells, calcium mobilization (FLIPR)): > 1000 nM | Emax (M1 muscarinic receptor; M1-CHO cells, calcium mobilization (FLIPR), read-out: M1 Efficacy): < 65% | EC50 (M4 muscarinic receptor; M4-CHO cells, calcium mobilization (FLIPR)): > 1000 nM | Emax (M4 muscarinic receptor; M4-CHO cells, calcium mobilization (FLIPR), read-out: M4 Efficacy): < 65%

CC(=O)N[C@H]1CC2(CCN(C3CCCCCC3)C2)c2ccc(F)cc21 (stereo partly shown) [compound 823]
Emax (M1 muscarinic receptor; [5]): 25 to 100% | M1 Activity (M1 muscarinic receptor; [8]): xx (activity was measured to be between 2.0 μM and 5.0 μM) | Emax (M4 muscarinic receptor; [5]): 25 to 100% | M4 Activity (M4 muscarinic receptor; [9]): xx (activity was measured to be between 2.0 μM and 5.0 μM)

CCCC(=O)N[C@H]1CC2(CCN([C@@H]3CC4CC[C@@H]3C4)CC2)c2ccccc21 [compound 1017]
Emax (M1 muscarinic receptor; [5]): 25 to 100% | M1 Activity (M1 muscarinic receptor; [8]): x (activity was measured to be greater than 5.0 μM) | Emax (M4 muscarinic receptor; [5]): 25 to 100% | M4 Activity (M4 muscarinic receptor; [9]): xxx (activity was measured to be less than 2.0 μM)

CCCOC(=O)N1CCC(CN2CCC3(CC2)CN(C(C)=O)c2ccc(C)cc23)CC1 [compound 306]
M1 Activity (M1 muscarinic receptor; [1]): x (activity was measured to be greater than 1.0 μM) | Emax (M1 muscarinic receptor; [2]): < 65% | M4 Activity (M4 muscarinic receptor; [3]): x (activity was measured to be greater than 1.0 μM) | Emax (M4 muscarinic receptor; [4]): < 65%

CN(C)C(=O)N1CC2(CCN(C3CCN(C(=O)OCC(F)F)CC3)CC2)c2cc(F)ccc21 [compound 885]
Emax (M1 muscarinic receptor; [5]): 25 to 100% | M1 Activity (M1 muscarinic receptor; [8]): xxx (activity was measured to be less than 2.0 μM) | Emax (M4 muscarinic receptor; [5]): 25 to 100% | M4 Activity (M4 muscarinic receptor; [9]): xxx (activity was measured to be less than 2.0 μM)

CC#CCOC(=O)N1CCC(N2CCC3(CC2)CN(C(=O)N(C)C)c2ccc(F)cc23)CC1 [compound 353]
M1 Activity (M1 muscarinic receptor; [1]): xxx (activity was measured to be less than 0.1 μM) | Emax (M1 muscarinic receptor; [2]): > 85% | M4 Activity (M4 muscarinic receptor; [3]): x (activity was measured to be greater than 1.0 μM) | Emax (M4 muscarinic receptor; [4]): 65 to 85%

CN(C)C(=O)N1CC2(CCN(C3CCN(c4ccc(F)cc4)CC3)CC2)c2cc(F)ccc21 [compound 534]
Emax (M1 muscarinic receptor; [5]): 25 to 100% | M1 Activity (M1 muscarinic receptor; [6]): xx (activity was measured to be between 2.0 μM and 5.0 μM) | Emax (M4 muscarinic receptor; [5]): < 25% | M4 Activity (M4 muscarinic receptor; [7]): xxx (activity was measured to be less than 2.0 μM)

CC(=O)N1CC2(CCN(CC3CCOCC3)CC2)c2cc(F)ccc21 [compound 644]
Emax (M1 muscarinic receptor; [5]): < 25% | M1 Activity (M1 muscarinic receptor; [6]): x (activity was measured to be greater than 5.0 μM) | Emax (M4 muscarinic receptor; [5]): < 25% | M4 Activity (M4 muscarinic receptor; [7]): x (activity was measured to be greater than 5.0 μM)

Source: US7786141B2 (Vertex Pharmaceuticals Incorporated, priority 2004, dated 2010)
